Results as given in patent publication US20250163026A1, “Deuterium-Enriched Nirmatrelvir as SARS-CoV-2 Mpro Inhibitor for the Treatment of COVID-19” (priority 2023, published 2025).

Test system: human coronavirus M^Pro
Assay: Biochemical determination for human coronavirus M^pro assays
Conditions: at 30 μM, control compound, 1% DMSO
Procedure: The respective human coronavirus M^Pro in assay buffer (20 mM Tris-HCl, pH 7.3, 100 mM NaCl, 1 mM EDTA, 5 mM TCEP) and 0.1% BSA is added to assay-ready plates containing test compound (compound the present invention, Formula I). The enzymatic reaction is then immediately initiated with the addition of 5 μL substrate in assay buffer. Initial rates are measured by following the fluorescence of the cleaved substrate using a Spectramax (Molecular Devices) fluorescence plate reader in the kinetic format.
Test compounds (compounds of the present invention, compounds of Formula I) are tested at final concentrations up to […] in 1% DMSO and compared to the broad-spectrum antiviral compound GC376 [Y. Kim, S. Lovell, et al, Broad-spectrum antivirals against 3C or 3C-like proteases of picornaviruses, noroviruses, and coronaviruses. J. Virol. […] The reaction is allowed to progress for 60 minutes at 23° C. after which the plate is read on a Molecular Devices Spectramax M2e reader at an Ex/Em of 340 nm/490 nm.
Percent inhibition values are calculated based on control wells containing DMSO only (0% inhibition) and wells containing a control compound (100% inhibition). […] Percent activity values are calculated based on control wells containing no compound (100% activity) and wells containing the broad-spectrum antiviral compound GC376 (0% activity). […]

CC(C)C[C@H](NC(=O)OCc1ccccc1)C(=O)N[C@@H](C[C@@H]1CCNC1=O)C(O)S(=O)(=O)[O-].[Na+] (stereo partly shown) [GC376]
inhibition: 100%
